From patent US20090304692A1, “TRIAZINE COMPOUNDS AS PI3 KINASE AND MTOR INHIBITORS” (Wyeth, priority 2008, published 2009)
“And” between values parts separate entries of the source, which are not always exact repeats. Equal values may be shown once. Read-outs that look alike come from different tables or passages of the source.

Experiments:
Human mTOR (FLAG-TOR) = Human mTOR (FLAG-TOR) (Homo sapiens, UniProt P42345); test: mTOR kinase assay (DELFIA format, purified enzyme); format: biochemical; details: read-out: IC50 mTOR
Human mTOR (FLAG-TOR), sequence (P42345 1360-2549 limits assumed): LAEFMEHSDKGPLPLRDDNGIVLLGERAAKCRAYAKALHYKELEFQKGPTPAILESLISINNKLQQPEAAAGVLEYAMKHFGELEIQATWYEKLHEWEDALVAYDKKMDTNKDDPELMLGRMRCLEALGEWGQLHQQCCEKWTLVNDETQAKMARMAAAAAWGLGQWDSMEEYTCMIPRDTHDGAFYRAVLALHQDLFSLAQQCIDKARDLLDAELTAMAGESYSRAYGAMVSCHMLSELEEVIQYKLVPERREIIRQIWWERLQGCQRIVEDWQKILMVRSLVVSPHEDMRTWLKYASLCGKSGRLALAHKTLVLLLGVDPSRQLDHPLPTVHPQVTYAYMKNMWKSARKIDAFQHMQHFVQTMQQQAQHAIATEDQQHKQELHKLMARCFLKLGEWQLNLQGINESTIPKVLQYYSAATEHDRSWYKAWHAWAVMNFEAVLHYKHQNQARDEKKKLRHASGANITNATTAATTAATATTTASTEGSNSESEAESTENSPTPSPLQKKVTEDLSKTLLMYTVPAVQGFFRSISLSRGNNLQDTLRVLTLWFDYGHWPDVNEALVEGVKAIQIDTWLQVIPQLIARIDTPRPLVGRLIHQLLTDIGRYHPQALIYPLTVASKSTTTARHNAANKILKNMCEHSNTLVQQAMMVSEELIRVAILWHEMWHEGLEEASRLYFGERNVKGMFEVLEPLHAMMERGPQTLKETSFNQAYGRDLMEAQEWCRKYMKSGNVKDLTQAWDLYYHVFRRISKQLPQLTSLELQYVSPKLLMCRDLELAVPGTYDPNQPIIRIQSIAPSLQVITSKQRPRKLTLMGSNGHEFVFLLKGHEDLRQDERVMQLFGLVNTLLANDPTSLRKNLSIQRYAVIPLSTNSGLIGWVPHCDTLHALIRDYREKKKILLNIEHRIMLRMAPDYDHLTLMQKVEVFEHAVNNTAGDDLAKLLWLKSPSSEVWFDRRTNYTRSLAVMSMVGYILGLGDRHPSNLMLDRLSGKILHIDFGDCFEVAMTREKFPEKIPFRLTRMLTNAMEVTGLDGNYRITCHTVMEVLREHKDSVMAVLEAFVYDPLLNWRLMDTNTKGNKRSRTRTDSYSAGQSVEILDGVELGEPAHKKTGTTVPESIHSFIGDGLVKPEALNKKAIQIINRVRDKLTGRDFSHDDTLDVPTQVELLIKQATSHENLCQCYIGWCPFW

[1] = system: human breast MDA-MB-361 tumor cell line; test: In vitro cell culture growth assay (MTS), MDA-MB-361; format: cell-based; details: Homo sapiens, MTS cell growth assay, three days after drug treatment, read-out: IC50 MDA-MB-361
[2] = system: human prostate PC3-mm2 tumor cell line; test: In vitro cell culture growth assay (MTS), PC3-mm2; format: cell-based; details: Homo sapiens, PC3MM2, 72 h, MTS cell growth assay, three days after drug treatment, read-out: IC50 PC3-mm2
PI3K-α = PI3K-α (Homo sapiens, UniProt P42336); test: PI3K-alpha fluorescence polarization assay; details: read-out: IC50 PI3Kα
PI3K-α, sequence (P42336 whole entry, species assumed): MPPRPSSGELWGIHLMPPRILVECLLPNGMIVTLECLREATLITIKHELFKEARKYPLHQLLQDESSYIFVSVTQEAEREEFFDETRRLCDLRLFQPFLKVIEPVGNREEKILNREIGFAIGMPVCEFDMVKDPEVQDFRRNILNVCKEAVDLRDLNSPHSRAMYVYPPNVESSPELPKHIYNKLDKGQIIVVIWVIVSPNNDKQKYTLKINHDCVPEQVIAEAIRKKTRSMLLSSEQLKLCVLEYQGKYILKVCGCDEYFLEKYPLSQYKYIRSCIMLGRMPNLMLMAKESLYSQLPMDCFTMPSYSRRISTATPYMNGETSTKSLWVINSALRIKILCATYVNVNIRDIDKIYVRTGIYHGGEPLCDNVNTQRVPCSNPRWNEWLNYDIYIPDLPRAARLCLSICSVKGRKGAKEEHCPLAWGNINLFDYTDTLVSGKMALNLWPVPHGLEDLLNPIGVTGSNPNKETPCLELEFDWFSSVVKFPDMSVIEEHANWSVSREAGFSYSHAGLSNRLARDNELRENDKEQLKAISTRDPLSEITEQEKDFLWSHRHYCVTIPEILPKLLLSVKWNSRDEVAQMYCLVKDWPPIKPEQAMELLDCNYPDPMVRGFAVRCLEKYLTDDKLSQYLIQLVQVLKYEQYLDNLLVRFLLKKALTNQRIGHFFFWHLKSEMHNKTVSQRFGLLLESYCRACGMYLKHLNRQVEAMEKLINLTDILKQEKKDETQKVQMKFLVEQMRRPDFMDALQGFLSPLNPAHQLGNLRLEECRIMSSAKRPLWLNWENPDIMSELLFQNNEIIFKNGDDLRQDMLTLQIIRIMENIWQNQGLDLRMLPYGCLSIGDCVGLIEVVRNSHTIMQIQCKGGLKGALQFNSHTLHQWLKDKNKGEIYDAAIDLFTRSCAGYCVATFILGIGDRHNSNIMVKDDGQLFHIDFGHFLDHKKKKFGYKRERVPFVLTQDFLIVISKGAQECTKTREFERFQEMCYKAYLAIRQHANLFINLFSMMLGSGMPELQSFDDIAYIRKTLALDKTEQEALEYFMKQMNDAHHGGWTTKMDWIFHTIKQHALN
PI3K-α, sequence (P27986 whole entry partner, species assumed): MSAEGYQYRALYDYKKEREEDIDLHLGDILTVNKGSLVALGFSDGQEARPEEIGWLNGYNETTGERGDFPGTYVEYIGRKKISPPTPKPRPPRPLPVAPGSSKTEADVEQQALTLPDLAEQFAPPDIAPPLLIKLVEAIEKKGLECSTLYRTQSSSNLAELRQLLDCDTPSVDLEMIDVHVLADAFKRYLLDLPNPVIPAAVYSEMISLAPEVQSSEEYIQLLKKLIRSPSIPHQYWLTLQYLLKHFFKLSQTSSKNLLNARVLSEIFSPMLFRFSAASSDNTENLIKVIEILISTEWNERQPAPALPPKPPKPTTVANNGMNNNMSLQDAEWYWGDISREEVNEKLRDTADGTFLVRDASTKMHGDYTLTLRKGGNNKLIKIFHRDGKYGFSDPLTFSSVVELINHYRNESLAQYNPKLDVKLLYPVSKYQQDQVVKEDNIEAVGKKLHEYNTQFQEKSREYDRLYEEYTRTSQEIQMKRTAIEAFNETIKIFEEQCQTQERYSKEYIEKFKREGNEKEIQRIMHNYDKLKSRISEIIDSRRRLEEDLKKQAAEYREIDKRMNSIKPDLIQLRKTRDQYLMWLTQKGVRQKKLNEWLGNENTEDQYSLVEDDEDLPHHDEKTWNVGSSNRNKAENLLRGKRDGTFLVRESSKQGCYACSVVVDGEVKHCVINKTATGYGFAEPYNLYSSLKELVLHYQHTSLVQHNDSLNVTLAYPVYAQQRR

PI3K-γ = PI3K-γ (Homo sapiens, UniProt P48736); test: PI3K-gamma fluorescence polarization assay; details: read-out: IC50 PI3Kγ
PI3K-γ, sequence (P48736 whole entry, species assumed): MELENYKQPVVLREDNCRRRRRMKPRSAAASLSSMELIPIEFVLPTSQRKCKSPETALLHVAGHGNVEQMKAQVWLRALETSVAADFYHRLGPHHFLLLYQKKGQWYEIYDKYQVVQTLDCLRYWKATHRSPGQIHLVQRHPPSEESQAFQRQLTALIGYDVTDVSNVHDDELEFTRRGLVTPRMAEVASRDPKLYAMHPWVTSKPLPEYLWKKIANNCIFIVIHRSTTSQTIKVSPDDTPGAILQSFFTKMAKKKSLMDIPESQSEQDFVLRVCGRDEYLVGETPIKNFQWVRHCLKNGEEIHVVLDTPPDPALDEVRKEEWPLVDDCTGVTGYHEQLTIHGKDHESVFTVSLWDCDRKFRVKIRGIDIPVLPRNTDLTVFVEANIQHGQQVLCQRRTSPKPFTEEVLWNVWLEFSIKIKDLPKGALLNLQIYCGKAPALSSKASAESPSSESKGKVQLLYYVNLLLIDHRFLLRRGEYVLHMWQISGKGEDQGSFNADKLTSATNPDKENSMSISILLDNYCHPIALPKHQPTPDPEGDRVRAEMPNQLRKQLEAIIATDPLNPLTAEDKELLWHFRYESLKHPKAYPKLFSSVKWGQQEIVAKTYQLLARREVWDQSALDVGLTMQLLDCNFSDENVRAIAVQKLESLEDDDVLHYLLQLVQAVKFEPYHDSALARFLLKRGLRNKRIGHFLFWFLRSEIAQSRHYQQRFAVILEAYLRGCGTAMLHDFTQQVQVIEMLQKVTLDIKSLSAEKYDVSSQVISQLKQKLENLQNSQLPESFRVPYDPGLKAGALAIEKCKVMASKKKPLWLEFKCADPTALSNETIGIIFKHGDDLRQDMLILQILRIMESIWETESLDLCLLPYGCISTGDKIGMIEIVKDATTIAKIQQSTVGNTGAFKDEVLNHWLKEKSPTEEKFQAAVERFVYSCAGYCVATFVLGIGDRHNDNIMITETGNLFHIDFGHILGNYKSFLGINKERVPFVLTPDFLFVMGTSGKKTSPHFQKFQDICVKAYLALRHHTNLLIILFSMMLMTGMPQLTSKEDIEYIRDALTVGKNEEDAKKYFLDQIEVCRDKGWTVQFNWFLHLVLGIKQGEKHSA

[3] = MDA-MB-361, 72 h, MDA-MB-361 cells

`CCCN1CCN(C(=O)c2ccc(NC(=O)Nc3ccc(-c4nc(N5CCOC[C@@H]5C)nc(N5CCOC[C@@H]5C)n4)cc3)cc2)CC1` [Example 638, 1-(4-{4,6-bis[(3S)-3-methylmorpholin-4-yl]-1,3,5-triazin-2-yl}phenyl)-3-{4-[(4-propylpiperazin-1-yl)carbonyl]phenyl}urea] was tested, and the IC50 (Human mTOR (FLAG-TOR)) was 2 nM, the IC50 ([1]; 72 h, MDA-MB-361 cells) was 9 nM and the IC50 ([2]; PC3-mm2 cells) was 44 nM. It also gave an IC50 (PI3K-α) of 16 nM and an IC50 (PI3K-γ) of 114 nM.
In the case of `CN(C)CCN(C)C(=O)c1ccc(NC(=O)Nc2ccc(-c3nc(N4CCCC4)nc(N4CCOCC4)n3)cc2)cc1` [Example 604, N-[2-(dimethylamino)ethyl]-N-methyl-4-({[4-(4-morpholin-4-yl-6-pyrrolidin-1-yl-1,3,5-triazin-2-yl)phenyl]carbamoyl}amino)benzamide], the IC50 (Human mTOR (FLAG-TOR)) is reported as 10 nM, the IC50 ([1]; 72 h, MDA-MB-361 cells) is reported as 4 nM and the IC50 ([2]; PC3-mm2 cells) is reported as 73 nM. The IC50 (PI3K-α) was 3.5 nM and the IC50 (PI3K-γ) was 55.5 nM.
`O=C(Nc1ccncc1)Nc1ccc(-c2nc(N3CCCCC3)nc(N3CCOCC3)n2)cc1` [Example 592, 1-[4-(4-morpholin-4-yl-6-piperidin-1-yl-1,3,5-triazin-2-yl)phenyl]-3-pyridin-4-ylurea] showed an IC50 (Human mTOR (FLAG-TOR)) of 9 nM, an IC50 ([1]; 72 h, MDA-MB-361 cells) of 239 nM and an IC50 ([2]; PC3-mm2 cells) of 718 nM. It also gave an IC50 (PI3K-α) of 25.5 nM and an IC50 (PI3K-γ) of 122 nM.
`CN(C)CCNC(=O)c1ccc(NC(=O)Nc2ccc(-c3nc(NS(=O)(=O)c4ccccc4)nc(N4CCOCC4)n3)cc2)cc1` [Example 788, N-[2-(dimethylamino)ethyl]-4-{[(4-{4-morpholin-4-yl-6-[(phenylsulfonyl)amino]-1,3,5-triazin-2-yl}phenyl)carbamoyl]amino}benzamide] was tested, and the IC50 (Human mTOR (FLAG-TOR)) was 26 nM, the IC50 ([1]; 72 h, MDA-MB-361 cells) was greater than 1000 nM and the IC50 ([2]; PC3-mm2 cells) was greater than 1000 nM. The IC50 (PI3K-α) was 13 nM and the IC50 (PI3K-γ) was 160 nM.
In the case of `NC(=O)c1ccc(NC(=O)Nc2ccc(-c3nc(N4CCOCC4)nc(N4C5CCC4COC5)n3)cc2)cc1` [Example 35, 4-[({4-[4-morpholin-4-yl-6-(3-oxa-8-azabicyclo[3.2.1]oct-8-yl)-1,3,5-triazin-2-yl]phenyl}carbamoyl)amino]benzamide], the IC50 (Human mTOR (FLAG-TOR)) is reported as 0.21 nM and 0.212 nM, the IC50 ([1]; MDA-MB-361, 72 h) is reported as 22.5 nM and the IC50 ([2]; PC3-mm2 cells) is reported as 27.5 nM. For the same compound, the IC50 [2] was 27.5 nM, the IC50 (PI3K-α) was 6 nM and the IC50 (PI3K-α; listed as 670) was 5 nM. For the same compound, the IC50 (PI3K-γ) was 54 nM and the IC50 (PI3K-γ; listed as 670) was 53 nM.
Work on `CN1CCN(C(=O)c2ccc(NC(=O)Nc3ccc(-c4nc(N5CCOCC5)nc(N5CCN(C(=O)N(C)C)CC5)n4)cc3)cc2)CC1` [Example 643, N,N-dimethyl-4-(4-{4-[({4-[(4-methylpiperazin-1-yl)carbonyl]phenyl}carbamoyl)amino]phenyl}-6-morpholin-4-yl-1,3,5-triazin-2-yl)piperazine-1-carboxamide] yielded an IC50 (Human mTOR (FLAG-TOR)) of 7 nM, an IC50 [1, 3] of 19 nM and an IC50 ([2]; PC3-mm2 cells) of 59 nM. The IC50 (PI3K-α) was 6.2 nM and the IC50 (PI3K-γ) was 42.5 nM.
In the case of `CC(C)N1CCN(C(=O)c2ccc(NC(=O)Nc3ccc(-c4nc(N5CCOCC5)nc(N5C6CCC5COC6)n4)cc3)cc2)CC1` [Example 754, 1-{4-[(4-isopropylpiperazin-1-yl)carbonyl]phenyl}-3-{4-[4-morpholin-4-yl-6-(3-oxa-8-azabicyclo[3.2.1]oct-8-yl)-1,3,5-triazin-2-yl]phenyl}urea], the IC50 (Human mTOR (FLAG-TOR)) is reported as 0.327 nM, the IC50 [1, 3] is reported as 31.3 nM and the IC50 ([2]; PC3-mm2 cells) is reported as 70.8 nM. The IC50 (PI3K-α) was 3 nM and the IC50 (PI3K-γ) was 28 nM.
For `CC(C)c1nc(-c2ccc(NC(=O)Nc3ccc(C(=O)NCCN(C)C)cc3)cc2)nc(N2CCOCC2)n1` [Example 305, N-[2-(dimethylamino)ethyl]-4-[({4-[4-(1-methylethyl)-6-morpholin-4-yl-1,3,5-triazin-2-yl]phenyl}carbamoyl)amino]benzamide], the IC50 (Human mTOR (FLAG-TOR)) was 0.6 nM, the IC50 ([1]; MDA-MB-361, 72 h) was 4 nM and the IC50 [2] was 46 nM. For the same compound, the IC50 (PI3K-α) was 1 nM and the IC50 (PI3K-γ) was 18 nM.
With `O=C(Nc1ccc(-c2nc(N3CCOCC3)nc(N3C4CCC3COC4)n2)cc1)Nc1ccnc(Cl)c1` [Example 746, 1-(2-chloropyridin-4-yl)-3-{4-[4-morpholin-4-yl-6-(3-oxa-8-azabicyclo[3.2.1]oct-8-yl)-1,3,5-triazin-2-yl]phenyl}urea] the IC50 (Human mTOR (FLAG-TOR)) was 1.27 nM, the IC50 ([1]; 72 h, MDA-MB-361 cells) was 93 nM and the IC50 ([2]; PC3-mm2 cells) was 118 nM. The IC50 (PI3K-α) was 23.5 nM and the IC50 (PI3K-γ) was 99 nM.
